Entries after “also recorded” stand apart in the source; their conditions may differ.
Legend:
[1] = tested on: SKOv3, OVCAR8, HCC5032, or MDA-MB-231 cells; test: DNA damage: γ-H2AX staining and comet assay with olaparib; format: cell-based; details: SKOv3, OVCAR8, HCC5032, MDA-MB-231
Method: Cells were trypsinized and resuspended at 2×10^5/mL in cold PBS without Ca^2+ and Mg^2+. Cells were mixed with pre-warmed comet agarose at 1:10 (v/v) ratio. 10 uL of cell agarose mixture was plated onto comet slides pre-coated with 75 uL of agarose and chilled at 4° C. for 15 min to set. Cells were lysed in 25 mL of Lysis buffer at 4° C. for 2 hrs and washed with alkaline solution (pH 10). Comet slides were electrophoresed in cold alkaline solution at 20V for 15 min. Slides were rinsed with water and dried in 70% ethanol for 5 min. Slides were then stained with Vista Green DNA dye and viewed using an Olympus epifluorescence microscope with a FITC filter. Images were captured using a 20× objective. […] Experiments were run in triplicate and Olive Tail Moment was measured using CaspLab1.2.3β2 software (CaspLab.com). Olive Tail Moment=Tail DNA %×Tail Length. 50-200 Cells were measured for each treatment and experiments were repeated twice independently to ensure reproducibility.
Cells on 22×22 mm coverslips were fixed in 4% formaldehyde in PBS (Thermo Fisher, J19943-K2) and permeabilized with 0.1% Triton X-100 (Sigma, X100) in PBS for 15 min. Cells were blocked with 5% BSA in PBS for 30 min and then stained with antibody overnight at 4° C., followed by secondary antibody and DAPI for 1 hr. […] After 24-hrs incubation, cells were fixed in 4% formaldehyde in PBS. Cells were stained as described above. […] DNA damage visualized by γ-H2AX staining was evaluated by counting nuclear γ-H2AX puncta in each cell. […] After 8 hrs incubation, cells were fixed in 4% formaldehyde in PBS. Cells were stained as described above. Images were captured using an Olympus IX71 microscope and nuclear γ-H2AX puncta in each cells were counted using with Olympus CellSens Dimension software. HDAC5 (CST20458) and γ-H2AX (CST2577) antibodies were purchased from Cell Signaling Technology. Experiments were repeated twice independently to ensure reproducibility and 50-200 cells were counted for each treatment.

MDA-MB-231 xenograft = test: MDA-MB-231 mammary fat pad xenograft, Compound B and olaparib; format: in vivo, mice; details: 50 mg/kg, oral, 5 weeks
Method: Forty female nu/nu mice were injected with 0.8×10^6 MDA-MB-231 cells into their fourth mammary fat pads. […] Tumors were measured every week as noted above (SKOv3 xenograft models).

[2] = Pre-clinical toxicology studies; format: in vivo
[3] = tested on: MDA-MB-231 orthotopic xenografts; test: MDA-MB-231 orthotopic xenografts; format: in vivo, mice
Method: To evaluate additive or synergistic interactions, a combination Index (CI value) was calculated with CalcuSyn software.

[4] = tested on: OVCAR8, SKOv3, OC316, OVCAR3, ES2, A2780, MDA2774, and IGROV1 cells; test: Short term cell proliferation (CellTiter-Glo), eight ovarian cancer cell lines; format: cell-based, human; details: single concentration of Compound B 0.75-1.25 μM; p<0.01
Method: Cells were seeded in 6 replicates in black-walled and clear-bottomed 96-well plates and incubated overnight. […] The CellTiter-Glo luminescent cell viability assay (Promega) was used to evaluate the effect of treatment on cancer growth. This experiment was performed several times to optimize the concentration. […] GraphPad Prism 8 was used to generate growth curves and calculated IC50. CalcuSyn was used to evaluate additive or synergistic interactions, a combination Index (CI value).

[5] = tested on: OVCAR8, SKOv3, OC316, MDA4772 and ES2 ovarian cancer cell lines; test: Clonogenic survival assay, Compound B and carboplatin; format: cell-based; details: 12-14 days; five cell lines
Method: Cell viability was measured with a bioluminescence assay as described in the Examples, and IC50 values were calculated. (B) Sensitivity to carboplatin. Eight ovarian cancer cell lines were treated as above with different concentrations of carboplatin as indicated. […] The drug concentration ratio is indicated in each plot. The combination index at 50% growth inhibition was calculated using CalcuSyn software. (E) Effect of SIK2 knockout on the carboplatin dose response curve. Cells were treated with different concentrations of carboplatin as indicated. IC50 values for (A-C, E) were calculated by GraphPad Prism 8. […] Four hundred OVCAR8 or SKOv3 ovarian cancer cells were seeded in 6-well plates in culture medium for 24 h. […] The graphs indicate the mean colony formation numbers with standard deviations.
Cancer cells were seeded in 6-well plates at a density of 400 cells per well in culture medium for 24 h to permit cell adherence. […] After control colonies had grown to include at least 50 cells, cultures were fixed and stained with Coomassie blue (0.1% Coomassie brilliant blue R-250, 40% methanol, and 10% acetic acid) and counted. Colonies were counted from three independent experiments and the mean number of colonies and standard deviations calculated. Multiplicity adjusted p values for each treatment and control were determined.

[6] = tested on: OVCAR8, SKOv3, and OC316 ovarian cancer cell lines; test: Annexin V/PI apoptosis, Compound B and carboplatin; format: cell-based; details: 72 h; flow cytometry
Method: Cells were dislodged and stained with Annexin V antibody and PI dye for flow cytometry. Representative images are shown on the left and the analysis of apoptotic population under different treatment conditions are on the right. (B) Effect of SIK2 knockout on carboplatin-induced apoptosis. SIK2 knockout (KO) and control cell lines were treated as in (A) and analyzed for apoptosis. The bars indicate the mean percentage of apoptotic cells with standard deviations.
After completion of incubation, cells were harvested and washed with PBS two times. After washing, cells were re-suspended in 100 μL Annexin-binding buffer containing propidium iodide (PI) and FITC Annexin-V (Invitrogen) and incubated at ambient temperature for 15 min in the dark. After incubation, 200 μL of Annexin-binding buffer was added and stained cells were analyzed using a Beckman Coulter's Gallios Flow Cytometer.
(§1) Many current cancer chemotherapies, including platinum-based drugs, exert their antitumor effect by triggering apoptosis in cancer cells. […] The inhibitor of apoptosis protein family (IAPs) includes an important group of proteins involved in the regulation of apoptosis. One member of this protein family, survivin, plays an important role in promoting tumor progression by deregulating apoptosis and cell division.

survivin = test: Survivin expression by western blot; format: cell-based; details: OC316 and OVCAR8; 48 h
Method: Cell lysates were collected and survivin expression was measured by western blot analysis. The experiments were performed three times individually. Densitometry values were determined by Image J shareware (NIH) and normalized to the GAPDH loading control. The values relative to the untreated group were plotted at the bottom.
Cells were incubated for 24-48 h with and without treatments and then harvested for western blot analysis. Briefly, cells were incubated in lysis buffer for 20 min on ice and centrifuged at 17,000×g for 10 min at 4° C. Protein concentration of cell lysates was determined with BCA reagent (Thermo Fisher Scientific, Houston, Tex., USA). Lysates were separated on 8-16% SDS-PAGE and transferred to polyvinylidene difluoride (PVDF) membranes. Immunoblots were probed with anti-survivin antibody (Novus; 1:2000, Centennial CO, USA) in 5% BSA overnight at 4° C. and HRP labeled secondary antibody was added for 1 h at RT. The signal was developed on X-ray films.
as §1

SKOv3 xenograft = test: SKOv3 subcutaneous xenograft, Compound B, carboplatin and paclitaxel; format: in vivo, mice; details: SKOv3 s.c., 6 weeks
Method: After treatment as indicated in (A) for three weeks, mice were weighed, and intraperitoneal nodules were excised and weighed. […] Mice were treated with single, double, or triple agents for 6 weeks. Tumor was measured once a week until the tumor burden in control group reached maximum allowance. The graphs indicate the mean±standard deviation. Statistical significance is indicated by *p<0.05, **p<0.01, and ***p<0.0001.
Six-week-old female athymic nu/nu mice were purchased from Envigo. Experiments were reviewed and all procedures were performed according to an animal protocol approved by the Institutional Animal Care and Use Committee of UT MD Anderson Cancer Center. […] Carboplatin was administrated i.p. once a week at a dose of 25 mg/kg. […] Carboplatin was treated at a dose of 30 mg/kg once a week for six weeks. […] At end of six weeks, the mice were sacrificed by CO2. The mice were dissected immediately after death and the tumors were collected and weighed.
OVCAR8 cells were injected intraperitoneally (ip) into nu/nu mice. Treatment started 7 days post injection. […] At the conclusion of the treatment, the mice were sacrificed, and the tumor was dissected and weighed (FIG. 23A). […] The tumor volume was measured at indicated time points (FIG. 23D).

SIK1 = SIK1 (Homo sapiens, UniProt P57059); test: SIK isoform dose response; format: biochemical
[7] = tested on: OVCAR8, SKOv3, and OC316 ovarian cancer cell lines; test: γ-H2AX punctae and comet assay, Compound B and carboplatin; details: 24 h
Method: (B) Cells were treated as described in (A) for 24 h. Then cells were dislodged, immobilized in agarose gel onto glass slide, and lysed. DNA was electrophoresed in alkaline buffer and stained by Vista Green. Olive tail moment (OTL) was measured as described in the Examples. Each plot depicts the mean of OTL (the bars indicate the standard deviation).
The OxiSelect™ Comet Assay Kit (Cell Biolabs, Inc., San Diego, Calif., USA) was used to evaluate DNA damage with or without drug treatment. […] Slides were electrophoresed in alkaline buffer at 1 volt/cm for 30 min. The cells were stained with 1× Vista Green DNA Dye for 15 min at RT and then viewed with a 4× fluorescence microscope. The percentage of DNA in the tail were analyzed with Casplab_1.2.3b2 (CaspLab Comet Assay Software, CASPLab, casplab.com). At least 50 randomly selected cells were analyzed per sample.

SIK1, sequence (P57059 whole entry, canonical isoform): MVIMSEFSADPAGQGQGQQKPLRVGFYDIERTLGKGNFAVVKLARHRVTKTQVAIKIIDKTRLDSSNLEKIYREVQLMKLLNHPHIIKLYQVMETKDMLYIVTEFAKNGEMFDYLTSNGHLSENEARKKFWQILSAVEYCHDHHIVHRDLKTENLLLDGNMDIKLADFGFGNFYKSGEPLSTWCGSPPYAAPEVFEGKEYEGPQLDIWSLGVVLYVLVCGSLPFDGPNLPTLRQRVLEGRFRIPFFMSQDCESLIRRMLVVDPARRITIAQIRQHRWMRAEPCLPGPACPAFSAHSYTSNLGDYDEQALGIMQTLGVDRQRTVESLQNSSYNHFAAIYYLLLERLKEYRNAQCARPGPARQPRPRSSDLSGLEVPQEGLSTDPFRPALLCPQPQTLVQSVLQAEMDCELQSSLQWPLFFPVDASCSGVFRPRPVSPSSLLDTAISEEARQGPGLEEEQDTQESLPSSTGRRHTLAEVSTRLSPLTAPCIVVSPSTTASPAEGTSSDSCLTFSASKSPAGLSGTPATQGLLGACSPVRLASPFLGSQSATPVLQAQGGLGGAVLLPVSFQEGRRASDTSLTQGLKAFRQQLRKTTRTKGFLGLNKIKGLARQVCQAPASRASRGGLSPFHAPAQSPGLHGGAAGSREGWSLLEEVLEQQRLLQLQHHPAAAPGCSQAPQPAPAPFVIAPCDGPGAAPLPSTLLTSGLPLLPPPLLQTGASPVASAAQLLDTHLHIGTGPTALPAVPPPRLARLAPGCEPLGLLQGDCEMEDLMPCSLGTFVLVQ

COc1c(F)cc(F)cc1-c1c[nH]c2ncc(-c3cnn(C4CCN(S(C)(=O)=O)CC4)c3)cc12 [Compound B, 3-(3,5-difluoro-2-methoxyphenyl)-5-(1-(1-(methylsulfonyl)piperidin-4-yl)-1H-pyrazol-4-yl)-1H-pyrrolo[2,3-b]pyridine]
levels of γ-H2AX and tailed DNA [1]: modestly increased
tumor burden / tumor volume (MDA-MB-231 xenograft): remained unchanged
hematologic / hematopoietic toxicity [2]: minimal hematologic toxicity; also recorded: little effect on normal hematopoietic or organ function; also recorded: little or no hematopoietic toxicity
xenograft growth and survival [3]: inhibited xenograft growth and prolonged the survival
carboplatin dose response curve when Compound B was added [4]: shifted to the left in seven of eight ovarian cancer cell lines
clonogenic survival [5]: significantly enhanced carboplatin induced loss of clonogenic survival
apoptosis [6]: induced apoptosis as a single agent, but also enhanced carboplatin-induced apoptosis
survivin expression (survivin): downregulation of survivin
tumor growth (tumor volume) (SKOv3 xenograft; Compound B 40 mg/kg): significantly inhibited tumor growth
effect when added to carboplatin plus paclitaxel (SKOv3 xenograft; p<0.01): further enhanced the combination treatment of carboplatin plus paclitaxel
IC50 (SIK1): 351 nM
comet tail moment induced with carboplatin [7]: further enhanced
